From paper PMC8633584, “Patient mutations in human ATP:cob(I)alamin adenosyltransferase differentially affect its catalytic versus chaperone functions” (The Journal of Biological Chemistry, 2021)
Substitutions are numbered along the chain they refer to. Blank lines part the entries; values can stand above or below the compound they belong to.

Experiments:
WT ATR [1] = biological target: T1, WT ATR (Homo sapiens, UniProt Q96EY8); assay: AdoCbl synthesis, steady-state kinetics; assay type: biochemical; design: The expression construct for recombinant human full-length and ΔN18 ATR in a pET-28b vector; His-tag (thrombin-cleavable) (N, cleaved yes); made in house; host or cells: E. coli BL21 (DE3)
T1 sequence (Q96EY8 38-250 limits assumed): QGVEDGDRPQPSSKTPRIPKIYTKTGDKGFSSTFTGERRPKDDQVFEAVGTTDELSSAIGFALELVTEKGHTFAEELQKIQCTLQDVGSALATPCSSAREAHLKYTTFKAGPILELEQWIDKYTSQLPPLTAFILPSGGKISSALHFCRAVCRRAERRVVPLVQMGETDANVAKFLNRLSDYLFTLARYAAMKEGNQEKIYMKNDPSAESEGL
Method: (§1) AdoCbl synthesis was determined by mixing cob(II)alamin (40 μM) in buffer A at 20 °C with ∼10 equivalents of titanium citrate under strictly anaerobic conditions. The reaction was started by addition of ATP (1 mM) and ATR (1 μM trimer concentration). The concentration of cob(I)alamin formed by reduction of cob(II)alamin was estimated using ε386nm = 28.0 cm^−1 mM^−1. The rate of AdoCbl synthesis was determined by measuring the change in absorbance at 522 nm using Δ ε522nm =5.06 mM^−1 cm^−1.

R190C ATR [2] = biological target: T2, R190C ATR (Homo sapiens, UniProt Q96EY8, R190C); assay: AdoCbl synthesis, steady-state kinetics; assay type: biochemical; design: The expression construct for recombinant human full-length and ΔN18 ATR in a pET-28b vector; His-tag (thrombin-cleavable) (N, cleaved yes); made in house; host or cells: E. coli BL21 (DE3)
T2 sequence (Q96EY8 38-250 R190C limits assumed): T1 sequence (Q96EY8 38-250 limits assumed) with R153C
Method: as §1

R190H ATR [3] = biological target: T3, R190H ATR (Homo sapiens, UniProt Q96EY8, R190H); assay: AdoCbl synthesis, steady-state kinetics; assay type: biochemical
T3 construct: The expression construct for recombinant human full-length and ΔN18 ATR in a pET-28b vector; His-tag (thrombin-cleavable) (N, cleaved yes); made in house; host or cells: E. coli BL21 (DE3)
T3 sequence (Q96EY8 38-250 R190H limits assumed): T1 sequence (Q96EY8 38-250 limits assumed) with R153H
Method: as §1

E193K ATR [4] = biological target: T4, E193K ATR (Homo sapiens, UniProt Q96EY8, E193K); assay: AdoCbl synthesis, steady-state kinetics; assay type: biochemical; design: WT and the R190C variants of ΔN18-ATR and full-length E193K ATR were purified; His-tag (thrombin-cleavable) (N, cleaved yes); made in house; host or cells: E. coli BL21 (DE3)
T4 sequence (Q96EY8 38-250 E193K limits assumed): T1 sequence (Q96EY8 38-250 limits assumed) with E156K
Method: as §1

E193K ATR [5] = biological target: T4, E193K ATR; assay: AdoCbl binding to ATR, UV-visible titration; design: WT and the R190C variants of ΔN18-ATR and full-length E193K ATR were purified; His-tag (thrombin-cleavable) (N, cleaved yes); made in house; host or cells: E. coli BL21 (DE3)
Method: (§2) Unless noted otherwise, all titration experiments were performed in buffer A. AdoCbl binding was monitored by adding increasing concentrations of WT or mutant ATR to 30 μM AdoCbl in buffer A at 20 °C. The spectrum was recorded 5 min after each addition. The concentration of bound AdoCbl was determined using […] = 8.0 cm^−1 mM^−1. The change in absorbance at 455 nm (corresponding to base-off AdoCbl bound to ATR) was plotted versus ATR concentration and fitted using the Dynafit software (BioKin) ([35]). Equation 1 (where A is the absorbance at 455 nm following each aliquot of ATR, ΔAmax is the maximal change in absorbance at 455 nm upon binding of AdoCbl to ATR, [E]t is the concentration of ATR active sites, and [L]t is the total AdoCbl concentration) was used to determine the dissociation constant for AdoCbl.(1) A=ΔAmax×([E]t+[L]t+Kd)+([E]t+[L]t+Kd)^2−4[L]t[E]t/2[L]t
(§3) The effect of PPPi on the KD for AdoCbl was determined by performing the above titration in the presence of 1 mM PPPi under anaerobic conditions.

R190H ATR [6] = biological target: T3, R190H ATR; assay: AdoCbl binding to ATR, UV-visible titration
Method: as §2, §3

WT ATR [7] = biological target: T1, WT ATR; assay: AdoCbl binding to ATR, UV-visible titration; design: The expression construct for recombinant human full-length and ΔN18 ATR in a pET-28b vector; His-tag (thrombin-cleavable) (N, cleaved yes); made in house; host or cells: E. coli BL21 (DE3)
Method: as §2, §3

R190C ATR [8] = biological target: T2, R190C ATR; assay: AdoCbl binding to ATR, UV-visible titration; design: The expression construct for recombinant human full-length and ΔN18 ATR in a pET-28b vector; His-tag (thrombin-cleavable) (N, cleaved yes); made in house; host or cells: E. coli BL21 (DE3)
Method: as §2, §3

E193K ATR [9] = biological target: T4, E193K ATR; settings: 1.1:1.0:1.0 E193K ATR:AdoCbl:PPPi
Method: (§4) The samples were prepared in an anaerobic chamber and contained: PPPi (1 mM), WT, R190C or E193K ATR (1.1 mM active sites), MgCl2 (2 mM), AdoCbl (1 mM) in 50 mM Hepes buffer pH 7.5 containing 150 mM KCl and 2 mM DTT at room temperature. The samples were transferred to 5-mm (internal diameter) NMR tubes (Wilmad-Glass), and the final volume was brought up to 0.4 ml with 90% water and 10% D2O (Cambridge Isotope Labs).
(§5) […] NMR spectra were collected at 242.5 MHz on a Bruker AVANCE NEO spectrometer equipped with a prodigy cryoprobe locked to D2O. All the NMR experiments were carried out at 25 °C using 12 μs 90° pulse widths, 8192 data points, and 4096 scans with 0.8 s recycle time. The chemical shifts were reported on proton-decoupled spectra by Gaussian line fits to the singlet resonances, relative to an external standard of 85% H3P0_4.

WT ATR [10] = biological target: T1, WT ATR; settings: WT ATR 1.1 mM active sites, PPPi 1 mM, no AdoCbl
Method: as §4, §5

R190C ATR [11] = biological target: T2, R190C ATR; settings: 1.1:1.0:1.0 R190C ATR:AdoCbl:PPPi
Method: as §4, §5

kcat (WT ATR [1]; AdoCbl synthesis, cob(II)alamin 40 μM, titanium citrate, anaerobic, 20 °C): 0.192 ± 0.0267 s⁻¹
Km (WT ATR [1]; read-out: KM (ATP)): 4.5 ± 1.1 µM
increase of KM for ATP relative to WT ATR (R190C ATR [2]; R190C ATR vs WT): 20 fold
lower activity (kcat) relative to WT ATR (R190C ATR [2]; R190C ATR vs WT): 16 fold
kcat (R190C ATR [2]; R190C ATR, AdoCbl synthesis, cob(II)alamin 40 μM, titanium citrate, anaerobic, 20 °C): 0.012 ± 0.0017 s⁻¹
Km (R190C ATR [2]; R190C ATR, read-out: KM (ATP)): 92 ± 31 µM
lower activity (kcat) relative to WT ATR (R190H ATR [3]; R190H ATR vs WT): 115 fold
kcat (R190H ATR [3]; R190H ATR, AdoCbl synthesis, cob(II)alamin 40 μM, titanium citrate, anaerobic, 20 °C): 0.0017 ± 0.0017 s⁻¹
increase of KM for ATP relative to WT ATR (E193K ATR [4]; E193K ATR vs WT): 52 fold
kcat (E193K ATR [4]; E193K ATR, AdoCbl synthesis, cob(II)alamin 40 μM, titanium citrate, anaerobic, 20 °C): 0.18 ± 0.01 s⁻¹
Km (E193K ATR [4]; E193K ATR, read-out: KM (ATP)): 235 ± 16 µM
SMILES: Nc1ncnc2c1ncn2[C@@H]1O[C@H](COP(=O)(O)OP(=O)(O)OP(=O)(O)O)[C@@H](O)[C@H]1O [ATP]

SMILES: C/C1=C2/[N-][C@H]([C@H](CC(N)=O)[C@@]2(C)CCC(=O)NC[C@@H](C)OP(=O)([O-])O[C@H]2[C@@H](O)[C@@H](n3cnc4cc(C)c(C)cc43)O[C@@H]2CO)[C@]2(C)N=C(/C(C)=C3N=C(/C=C4N=C1[C@@H](CCC(N)=O)C\4(C)C)[C@@H](CCC(N)=O)[C@]\3(C)CC(N)=O)[C@@H](CCC(N)=O)[C@]2(C)CC(N)=O.[CH2-][C@H]1O[C@@H](n2cnc3c(N)ncnc32)[C@H](O)[C@@H]1O.[Co+3] [AdoCbl, 5′-deoxyadenosylcobalamin]
Kd (E193K ATR [5]; 1 mM PPPi, anaerobic): 100 ± 20 µM
effect of PPPi on KD for AdoCbl (E193K ATR [5]; PPPi 1 mM): no effect
Kd (E193K ATR [5]; without PPPi, buffer A, 20 °C): 120 ± 30 µM
Kd (R190H ATR [6]; 1 mM PPPi, anaerobic): 13 ± 3 µM
lower KD(AdoCbl) in the presence of PPPi (R190H ATR [6]; PPPi 1 mM): 3.9 fold
Kd (R190H ATR [6]; without PPPi, buffer A, 20 °C): 50 ± 5 µM
Kd (WT ATR [7]; 1 mM PPPi, anaerobic): 0.2 ± 0.1 µM
decrease of KD for AdoCbl by PPPi (WT ATR [7]; PPPi 1 mM): 5 fold
Kd (WT ATR [7]; without PPPi, buffer A, 20 °C): 1 ± 0.3 µM
Kd (R190C ATR [8]; 1 mM PPPi, anaerobic): 4 ± 1 µM
lower KD(AdoCbl) in the presence of PPPi (R190C ATR [8]; PPPi 1 mM): 10 fold
Kd (R190C ATR [8]; without PPPi, buffer A, 20 °C): 40 ± 6 µM

PPPi binding by 31P NMR (E193K ATR [9]): did not lead to detectable PPPi binding
PPPi binding by 31P NMR (WT ATR [10]): not bound to the protein
PPPi binding by 31P NMR (R190C ATR [11]): did not lead to detectable PPPi binding
SMILES: O=P(O)(O)OP(=O)(O)OP(=O)(O)O [PPPi, inorganic triphosphate]
